In PMC3519854, “High Yield Production and Refolding of the Double-Knot Toxin, an Activator of TRPV1 Channels” (PLoS ONE, 2012):
Positions of bridges follow the written chain, without caps; N, C: chain ends. Residues, ends and D or L forms follow the SMILES beside them.

Tests used:
rat TRPV1 = target: T1, rat TRPV1 (Rattus norvegicus, UniProt O35433); assay: Two-electrode voltage clamp recording of TRPV1 activation in oocytes; type: cell-based; conditions: for Relative potency as TRPV1 agonist: comparison of DkTx, K1 and K2, concentration-dependence in oocytes; for Hill coefficient for activation of TRPV1 / Reversibility of TRPV1 activation after removal of the toxin / Activation of TRPV1 channels (evoked currents): rat TRPV1 in Xenopus oocytes; for Hill coefficient for activation of TRPV1: concentration-dependence; for Activation of TRPV1 channels (evoked currents): holding voltage −60 mV, DkTx applied at 1 µM
T1 construct: expressed in transfected cells; host or cells: Xenopus laevis oocytes injected with cRNA (pGEM-HE vector)
T1 sequence (O35433 whole entry): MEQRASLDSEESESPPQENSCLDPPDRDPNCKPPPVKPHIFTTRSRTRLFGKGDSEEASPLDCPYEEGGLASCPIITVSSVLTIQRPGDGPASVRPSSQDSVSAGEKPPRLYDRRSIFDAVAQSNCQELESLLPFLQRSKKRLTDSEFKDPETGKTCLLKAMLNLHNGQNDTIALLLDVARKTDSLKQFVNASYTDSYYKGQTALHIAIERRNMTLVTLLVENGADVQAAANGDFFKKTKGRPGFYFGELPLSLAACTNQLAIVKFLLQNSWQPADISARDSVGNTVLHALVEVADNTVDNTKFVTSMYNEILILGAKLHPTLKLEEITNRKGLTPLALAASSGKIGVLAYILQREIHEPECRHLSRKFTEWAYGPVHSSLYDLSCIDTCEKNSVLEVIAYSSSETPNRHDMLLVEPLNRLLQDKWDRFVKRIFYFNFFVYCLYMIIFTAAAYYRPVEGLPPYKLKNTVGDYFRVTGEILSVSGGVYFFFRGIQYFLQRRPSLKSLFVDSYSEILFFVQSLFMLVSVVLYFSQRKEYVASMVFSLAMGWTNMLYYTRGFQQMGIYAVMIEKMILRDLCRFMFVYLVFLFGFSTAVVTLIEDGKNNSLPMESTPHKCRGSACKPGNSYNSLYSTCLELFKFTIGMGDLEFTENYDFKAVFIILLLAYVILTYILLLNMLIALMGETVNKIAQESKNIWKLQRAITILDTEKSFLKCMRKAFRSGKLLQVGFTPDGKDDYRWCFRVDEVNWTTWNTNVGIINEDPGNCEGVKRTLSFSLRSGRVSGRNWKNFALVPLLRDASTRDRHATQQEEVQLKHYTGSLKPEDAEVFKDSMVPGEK
Procedure: (§1) Oocytes were surgically removed from anesthetized Xenopus laevis frogs in accordance with protocol 1253-12 approved by the National Institute of Neurological Disorders and Stroke Animal Care and Use Committee. Oocytes were gently shaken for 60 min in a solution of 82.5 mM NaCl, 2.5 mM KCl, 1 mM MgCl2, 5 mM HEPES and 2 mg/mL collagenase. A rat TRPV1 construct (generously provided by D. Julius, UCSF) was cloned into the pGEM-HE vector, and used to generate cRNA. The cRNA was then injected into oocytes, which were then incubated for 1–3 days at 17°C in ND-96 solution (96 mM NaCl, 2 mM KCl, 5 mM HEPES, 1 mM MgCl2 and 50 µg/mL gentamycin, titrated to pH 7.6 with NaOH). TRPV1 activity was recorded under voltage clamp using a two-electrode voltage clamp (OC-725C; Warner Instruments) in a 150-µL recording chamber. The recorded data were filtered at 1 kHz and digitized at 5 kHz using a digidata analog/digital converter and pClamp software (Molecular Devices). Microelectrode resistances were 0.1–1 MΩ when filled with 3 M KCl. The external recording solution contained 115 mM NaCl, 2.5 mM KCl, 1.5 mM MgCl2 and 10 mM HEPES, titrated to pH 7.4 with NaOH. All experiments were performed at room temperature (∼22°C).
Figure 6 Activity of K1, K2 and DkTx on TRPV1 channels. (A) Synthetic K1, K2 and DkTx activate TRPV1 channels. Oocytes were held at −60 mV and toxins were added to the recording chamber. (B) Concentration-dependence for activation of TRPV1 by the toxins.
(§2) The functional activities of DkTx, K1 and K2 were also compared by recording their electrophysiological effects on TRPV1-expressing cells.

[1] = Relative hydrophobicity by RP-HPLC elution of folded versus linear toxin; type: physicochemical; conditions: RP-HPLC C18, acetonitrile/water gradient with 0.1% TFA, qualitative
Procedure: Figure 3 Purification and activity of the DkTx folding product. (A) Purification of linear DkTx. Cleavage of the fusion protein and reduction of the disulfide bond were accomplished using hydroxylamine and DTT, respectively, as described in methods. (B) Linear DkTx was folded in 1 M NH4OAc (pH 8.0) buffer containing 1 M GdnHCl, 1 mM EDTA, 2.5 mM GSH and 0.25 mM GSSG for 5 days at 4°C. The toxins were purified using a linear gradient of 29–44% solvent B for 15 min at a flow rate of 14 ml/min, where solvent A was water containing 0.1% TFA and solvent B was acetonitrile containing 0.1% TFA. (C) Fraction 5 activated TRPV1 expressed in oocytes. Holding voltage was −60 mV.
Figure 4 HPLC profiles of DkTx during the folding reaction. The peptides were separated using a linear gradient of 5–65% solvent B for 30 min at a flow rate of 1 ml/min, where solvent A was water containing 0.1% TFA and solvent B was acetonitrile containing 0.1% TFA. (A) Oxidative folding of DkTx in redox buffer was monitored by HPLC. Asterisks indicate correctly folded DkTx. (B) HPLC chromatogram of purified DkTx. Dashed and solid arrows indicate the minor and major forms of DkTx, respectively. […]
Figure 5 Folding kinetics of K1, K2 and DkTx. […] Quantification of the folding specifies was accomplished using HPLC. The correctly folded form (%) was determined based on the areas of the HPLC peaks. […]

A657P mutant of TRPV1 [2] = assay: Two-electrode voltage clamp recording on the A657P mutant of TRPV1; type: cell-based; conditions: data not shown
Procedure: as §1, §2

A657P mutant of TRPV1 [3] = conditions: cited from earlier work
Text: as §2

N.N.N.N.N.N.N.N.N.N.N.N.N.N.[Cl-].[Cl-].[Cl-].[Cl-].[Cl-].[Cl-].[O-2].[O-2].[Ru+3].[Ru+3].[Ru+4] [ruthenium red, reference compound]
Block of DkTx-evoked TRPV1 currents (rat TRPV1; currents evoked by 1 µM DkTx in oocytes, −60 mV): blocked

CC[C@H](C)[C@@H]1NC(=O)[C@H](Cc2ccccc2)NC(=O)[C@H](C)NC(=O)[C@H](CC(C)C)NC(=O)[C@@H]2CCCN2C(=O)[C@@H]2CSSC[C@@H]3NC(=O)[C@H](C(C)C)NC(=O)[C@H](CCC(=O)O)NC(=O)CNC(=O)[C@H](CCC(=O)O)NC(=O)[C@H](CCCCN)NC(=O)[C@H](C)NC(=O)[C@@H](NC(=O)[C@@H](N)CC(N)=O)CSSC[C@H](NC(=O)[C@H](CSSC[C@@H](C(=O)N[C@@H](CCC(=O)O)C(=O)N[C@@H](CCCCN)C(=O)N[C@@H](Cc4ccc(O)cc4)C(=O)N[C@@H](CCCNC(=N)N)C(=O)O)NC(=O)[C@H](Cc4ccc(O)cc4)NC(=O)[C@@H]4CCCN4C1=O)NC(=O)[C@H](CCCCN)NC(=O)[C@H](CO)NC(=O)CNC(=O)[C@H](Cc1c[nH]c4ccccc14)NC(=O)CNC3=O)C(=O)N[C@@H](Cc1c[nH]cn1)C(=O)NCC(=O)N[C@@H](CC(C)C)C(=O)N[C@@H](CC(=O)O)C(=O)N2 [K2] (H-NCAKEGEVCGWGSKCCHGLDCPLAFIPYCEKYR-OH; disulfide 2-16, 9-21, 15-29 (inferred); N-terminus and C-terminus assumed)
Hydrophobicity of the correctly folded form relative to the linear form [1]: more hydrophobic than the linear or misfolded forms | Relative potency as TRPV1 agonist (rat TRPV1): more active than K1 | Hill coefficient for activation of TRPV1 (rat TRPV1): about 4 | Reversibility of TRPV1 activation after removal of the toxin (rat TRPV1; −60 mV): readily reversible | Activation of the A657P mutant of TRPV1 (A657P mutant of TRPV1 [2]): neither toxin activated the channel

GDCAKEGEVCSWGKKCCDLDNFYCPMEFIPHCKKYKPYVPVTTNCAKEGEVCGWGSKCCHGLDCPLAFIPYCEKYR (disulfide 3-17, 10-24, 16-32, 45-59, 52-64, 58-72 (inferred)) [DkTx, double-knot toxin]
Hydrophobicity of the correctly folded form relative to the linear form [1]: more hydrophobic than the linear form | Relative potency as TRPV1 agonist (rat TRPV1): most potent TRPV1 agonist among the three toxins | Hill coefficient for activation of TRPV1 (rat TRPV1): ~1 | Activation of TRPV1 channels (evoked currents) (rat TRPV1): evoked large currents | Activation of TRPV1 channels (evoked currents) (rat TRPV1; listed as fraction 5): robustly activated TRPV1 channels | Reversibility of TRPV1 activation after removal of the toxin (rat TRPV1; −60 mV): decayed slowly | Sensitivity of the A657P mutant of TRPV1 to toxin (A657P mutant of TRPV1 [3]): insensitive
